Target: T1, recombinant ackA (S. aureus ATCC12600 acetate kinase) (Staphylococcus aureus, UniProt Q8NW53)
T1 construct: full-length, His-6 tag from pQE 30 (Sal I/Hind III), clone PSackA, expressed in E. coli DH5alpha, nickel column, 44 kDa on SDS-PAGE
T1 sequence (Q8NW53 1-400): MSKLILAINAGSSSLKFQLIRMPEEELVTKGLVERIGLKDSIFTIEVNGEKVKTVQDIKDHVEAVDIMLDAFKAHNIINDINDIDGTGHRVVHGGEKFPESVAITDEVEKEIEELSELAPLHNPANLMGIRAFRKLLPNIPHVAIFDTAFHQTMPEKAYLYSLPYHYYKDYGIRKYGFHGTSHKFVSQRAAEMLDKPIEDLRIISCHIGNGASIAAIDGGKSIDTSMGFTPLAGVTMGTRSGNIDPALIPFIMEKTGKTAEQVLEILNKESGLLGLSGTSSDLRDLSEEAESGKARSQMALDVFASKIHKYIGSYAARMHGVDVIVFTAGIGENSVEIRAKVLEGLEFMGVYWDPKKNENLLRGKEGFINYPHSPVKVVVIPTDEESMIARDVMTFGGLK
Experiment: coupled pyruvate kinase / lactate dehydrogenase assay, NADH at […] nm
Assay type: biochemical
Conditions: 2 mM potassium acetate, 1.5 mM ATP, 2 mM MgCl2, 100 mM Tris-HCl pH 7.3

CC(=O)O [potassium acetate]
coupled pyruvate kinase / lactate dehydrogenase assay, NADH at 340 nm: Assays were initiated by the addition of either the cytosolic fraction or pure recombinant ackA
